Patent US20100239556A1, “PROMOTING ECM PRODUCTION BY FIBROBLAST CELLS AND/OR PROMOTING MIGRATION OF FIBROBLAST CELLS IN A BIOLOGICAL SYSTEM” (TGR BioScience Pty Ltd., priority 2006, published 2010)

Key:
[1] = test system: human foreskin fibroblast cells (HFF); assay: Soluble collagen I, III and VI in HFF conditioned media (direct coat ELISA); format: cell-based; conditions: for ECM protein levels in the media of HFF cells: 6 hour treatment, following 72 hours; for collagen I concentration in the media: ARP, HRP, SBP 12.5 μg/ml, LP 160 μg/ml, MP 250 μg/ml, untreated control 0.08 μg/ml; for collagen VI in the cell media: untreated control 0.03 ug/ml; for collagen VI levels: both 5 and 7 days; for increase in collagen VI, steady state: 72 hours (ARP response not statistically significant, p=0.08); for collagen III levels: untreated control 0.11 μg/ml
Procedure: Primary human foreskin fibroblast cells (HFF) were seeded into 96 well plates at a density of 1.2×10^4 cells/well and cultured overnight in 10% fetal bovine serum/Dulbecco's minimum essential media (10% FBS/DMEM) at 37° C. and 5% CO2. The cells were then starved overnight in serum free DMEM and triplicate wells treated for six hours with a range of doses of proteins with peroxidase activity; horse radish peroxidase (HRP; 0.2-50 ug/ml), Arthromyces ramosus peroxidase (ARP; 0.2-50 ug/ml), microperoxidase (MP; 8-500 ug/ml), soy bean peroxidase (SBP; 0.2-100 ug/ml) and lactoperoxidase (LP; 10-310 ug/ml) (all obtained from Sigma-Aldrich). At the end of the six hour treatment period, the media was aspirated and replaced with fresh serum free DMEM and the cells cultured for a further 72 hours. […] This assay measures the reduction of oxidized, blue nonfluorescent Alamar Blue reagent to a pink fluorescent dye in the cell medium, such that the higher the amount of reduction, the greater the cell number and/or activity (O'Brien Eur J Biochem 267 2000). Briefly, cells were bathed in a 10% Alamar Blue/phosphate-buffered saline (PBS) solution for 30-60 minutes and fluorescence measured at wavelengths of 485 nm excitation and 595 nm emission using a Wallac Victor Multilabel HTS counter. Relative fluorescent units (RFU) for each sample were normalized to control wells (DMEM only treated cells) and data expressed as mean±standard error of the mean (sem) for triplicate wells. Experiments were repeated at least three times with the combined data from all experiments shown.
The amount of soluble collagen types I, III, and VI in HFF conditioned media was measured by a direct coat ELISA method using standard curves constructed from purified human collagen I, III or VI (extracted from human placenta; col I, BD Biosciences; col III and VI, Rocklands Immunochemicals) and fibronectin (extracted from human plasma, Chemicon). Samples and standards (20 μl/well) were added to a 384 well spectraplate (Packard BioScience) and left at room temperature (RT) overnight. The spectraplate was then washed 6 times with PBS-tween 0.05% (PBS-T) and 2.5% bovine serum albumin (BSA)/PBS blocking solution added to each well and the plate incubated for 1 hour at RT. The plate was then washed 6 times with PBS-T and primary antibody (0.25 μg/ml rabbit-anti-human-collagen I polyclonal; 2 μg/ml rabbit-anti-human-collagen III polyclonal; 0.25 μg/ml rabbit-anti-human-collagen VI polyclonal; 0.2 μg/ml rabbit-anti-human-fibronectin polyclonal, all from Rockland Immunochemicals) in 5% non-fat dairy milk added to each well for four hours at RT. After washing (6×PBS-T), europium tagged anti-rabbit secondary antibody (0.5 μg/ml 1% BSA/PBS; Wallac Oy) was added for 1 hour at RT. After a final wash (6×PBS-T), enhancement solution was added for at least 10 minutes and fluorescence measured at excitation 340 nm and emission 615 nm using a Wallac Victor Multilabel HTS counter. The respective ECM concentration of each sample was determined from the standard curve (μg/ml) and normalized to control wells (DMEM only treated cells) with the mean±sem for triplicate wells calculated. Experiments were repeated at least three times with the combined data from all experiments shown.

human skin = assay: Collagen I and III immunohistochemistry in ex vivo human skin (Franz cell); conditions: intradermal injection 100 μl, 72 hours
Procedure: To confirm proteins with peroxidise activity can stimulate ECM production in human skin, studies were performed on ex vivo skin collected from tissue reduction surgery. The studies were undertaken using a modification of the OECD Test Guideline 428 (2004) Skin Absorption: in vitro method. Freshly excised human skin was collected in a
Hanks balanced salt solution (HBSS) and after being thoroughly washed in sterile, colour free DMEM/F12 media (Dulbecco's Modified Eagle Medium/Hams F12, Invitrogen) to remove surface debris, the subcutaneous fat layer was removed. Circles of full-thickness skin 15 mm in diameter were cut and placed epidermis side up on vertical glass diffusion cells of a Franz cell diffusion system (Crown Glass Co, NJ, USA). The skin was secured between two clamped ground glass joints and allowed to equilibrate and hydrate for approximately 30 minutes with the receptor chambers of the diffusion cells containing colour-free DMEM/F12+1% (v/v) of an antibiotic mix (200 mM L-glutamine, 10,000 units penicillin, 10 mg streptomycin per ml; Sigma, USA). The temperature of the jacketed diffusion cells was maintained at 34° C.±1° C. and the contents were constantly stirred using a mini magnetic stirrer. Proteins with peroxidase activity or a control were injected intradermally into the skin discs in a volume of 100 μl using a 27 gauge needle. After 72 hours the skin discs were removed and bisected with one half fixed in 4% buffered formalin for histological assessment and the other half snap frozen in liquid nitrogen for immunohistochemical detection of collagen I and III protein within the dermis. Frozen skin pieces were processed into cryoblocks, cut onto slides and fixed in acetone/methanol. All slides were blocked with 2% (w/v) bovine serum albumin (BSA) in HBSS and then incubated with either anti-human collagen type I or III primary antibodies (Chemical Credential, ICN or DakoCytomation respectively). The secondary antibody was biotinylated Multi-Link (DakoCytomation) with detection by streptavidin-biotinylated alkaline phosphatase (DakoCytomation). Visualisation was achieved by incubating each section with Naphthol AS/MX phosphate/fast red substrate containing 5 mM levamisole (Sigma). After washing, slides were counter stained with Mayer's Haematoxylin and assessed for collagen expression.

[2] = doses between 6.25 and 50 μg/ml

| Molecule | increase in collagen I compared to controls ([1]; 0.4 μg/ml, 72 hours) [fold] | ECM protein levels in the media of HFF cells [1] | collagen I concentration in the media ([1]; 5 days) [µg/mL] | collagen VI in the cell media ([1]; 7 days) [µg/mL] | collagen VI levels [1] | increase in collagen VI, steady state [1, 2] | collagen III immuno-reactivity (human skin) | staining intensity for collagen I (human skin) | collagen III levels ([1]; 5 days) [µg/mL] | other results |
| --- | --- | --- | --- | --- | --- | --- | --- | --- | --- | --- |
| Arthromyces ramosus peroxidase [ARP] | 1.4 | increased ECM protein levels dose dependently | 0.6 | 0.11 | increased the collagen VI levels | 2 fold | – | – | – | increase in collagen I compared to controls ([1]; 25 μg/ml, 72 hours): 5.8 fold; decrease in collagen III compared to control levels ([1]; 25 and 50 μg/ml, 72 hours): 50%; collagen I concentration in the media ([1]; 7 days): 0.6 µg/mL; increase in collagen III ([1]; any dose used, 72 hours): did not induce a significant increase |
| lactoperoxidase [LP] | – | increased ECM protein levels dose dependently | 1.1 | 0.07 | increased the collagen VI levels | – | did not appear to affect collagen III immuno-reactivity | increased staining intensity for collagen I | 0.18 | increase in collagen I compared to controls ([1]; 80 μg/ml, 6 h treatment, 72 hours): 4 fold; increase in collagen I compared to controls ([1]; 310 μg/ml, 72 hours): 8 fold; increase in collagen VI levels ([1]; 160 and 310 μg/ml, 72 hours): 2 fold; changes in collagen III levels (non-significant) ([1]; doses from 10-310 μg/ml, 72 hours): 1.5-1.7 fold |
| microperoxidase [MP] | – | increased ECM protein levels dose dependently | 0.17 | – | – | – | increased collagen III staining | increased staining intensity for collagen I | – | increase in collagen VI ([1]; any dose used, 72 hours): did not induce a significant increase |
| soy bean peroxidase [SBP] | 1.6 | increased ECM protein levels dose dependently | – | 0.09 | increased the collagen VI levels | – | – | – | 0.15 | increase in collagen VI ([1]; 0.4 μg/ml, 72 hours): 1.2 fold; increase in collagen VI ([1]; 50 μg/ml, 72 hours): 5.4 fold; increase in collagen I compared to controls ([1]; 25 and 50 μg/ml, 72 hours): 10.5 fold; increase in collagen III, steady state ([1]; between 12.5 and 50 μg/ml, 72 hours): 2.1-2.3 fold |
| horse radish peroxidase (protein, UniProt P00433 31-338, looked up) Peroxidase C1A: QLTPTFYDNSCPNVSNIVRDTIVNELRSDPRIAASILRLHFHDCFVNGCDASILLDNTTSFRTEKDAFGNANSARGFPVIDRMKAAVESACPRTVSCADLLTIAAQQSVTLAGGPSWRVPLGRRDSLQAFLDLANANLPAPFFTLPQLKDSFRNVGLNRSSDLVALSGGHTFGKNQCRFIMDRLYNFSNTGLPDPTLNTTYLQTLRGLCPLNGNLSALVDFDLRTPTIFDNKYYVNLEEQKGLIQSDQELFSSPNATDTIPLVRSFANSTQTFFNAFVEAMDRMGNITPLTGTQGQIRLNCRVVNSNS | – | increased ECM protein levels dose dependently | – | 0.13 | increased the collagen VI levels | 3-3.5 fold | increased collagen III staining | increased staining intensity for collagen I | 0.22 | increase in collagen I compared to controls ([1]; 0.2 μg/ml, 72 hours): 1.5 fold; increase in collagen VI compared to controls ([1]; 1.56 μg/ml, 72 hours): 2 fold; increase in collagen III compared to controls ([1]; 3.12 μg/ml, 72 hours): 3 fold; increase in collagen I compared to controls ([1]; 50 μg/ml, 72 hours): 10 fold; increase in collagen III compared to controls ([1]; 25 and 50 μg/ml, 72 hours): 4 fold; collagen III level ([1]; 7 days, 12.5 μg/ml, untreated control 0.06 μg/ml): 0.3 µg/mL; increase in collagen I, steady state response ([1]; doses between 6.25 and 50 μg/ml, 72 hours): 9-10 fold |
